The source of these data is US12084472B2 (Ardelyx, Inc., priority 2015, dated 2024).

This assay addresses T1, human TGR5 (Homo sapiens, UniProt Q8TDU6).
T1 construct: expressed in transfected cells; host or cells: HEK293
T1 sequence (Q8TDU6 1-330): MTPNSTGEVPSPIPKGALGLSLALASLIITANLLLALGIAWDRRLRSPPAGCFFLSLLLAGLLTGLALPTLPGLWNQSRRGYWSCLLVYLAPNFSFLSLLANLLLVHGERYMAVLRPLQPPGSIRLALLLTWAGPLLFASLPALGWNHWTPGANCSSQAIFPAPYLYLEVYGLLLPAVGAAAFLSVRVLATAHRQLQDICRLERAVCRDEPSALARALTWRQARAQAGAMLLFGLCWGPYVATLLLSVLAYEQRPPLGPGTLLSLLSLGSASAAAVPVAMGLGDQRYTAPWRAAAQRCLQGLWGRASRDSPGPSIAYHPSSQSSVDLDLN
Nature of the assay: Cell-based TGR5 assay (cAMP generation, HTRF). The settings on record: HEK293 cells stably transfected with human TGR5; cAMP by HTRF; 30 minutes at 37° C.; read-out: pEC50 Human TGR5 (converted). Put shortly: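 First, compounds in 3-fold serial dilution were placed in HBSS with 10 mM HEPES pH 7.4 and 0.5 mM IBMX. Next, human TGR5-expressing HEK293 cells were added and incubated 30 min at 37° C. Finally, cAMP was detected by HTRF and pEC50 derived by logistic fitting.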
(Time-resolved FRET reads energy transfer from a long-lived donor to a nearby acceptor.)
With `CC(CCCC(=O)N(C[C@@H](O)[C@H](O)[C@@H](O)[C@@H](O)CO)[C@H]1CC[C@@H](O)CC1)c1ccc(Cl)c(CNC2(c3cnccc3-c3ccccc3OC3CC3)CC2)c1` (stereo partly drawn) [Compound I-343, 5-{4-chloro-3-[({1-[4-(2-cyclopropoxyphenyl)pyridin-3-yl]cyclopropyl}amino)methyl]phenyl}-N-[(2R,3S,4S,5S)-2,3,4,5,6-pentahydroxyhexyl]-N-[(1s,4s)-4-hydroxycyclohexyl]hexanamide], the EC50 was less than 100 nM.
Next, `CCNC(=O)CCN(C[C@H](O)[C@@H](O)[C@H](O)[C@H](O)CO)C(=O)CCCC(C)c1ccc(Cl)c(CNC2(c3cnccc3-c3ccccc3OC3CC3)CC2)c1` (stereo partly drawn) [Compound I-344, 5-{4-chloro-3-[({1-[4-(2-cyclopropoxyphenyl)pyridin-3-yl]cyclopropyl}amino)methyl]phenyl}-N-[2-(ethylcarbamoyl)ethyl]-N-[(2S,3R,4R,5R)-2,3,4,5,6-pentahydroxyhexyl]hexanamide]: 126 to 1000 nM; `CC(CCCC(=O)N(CCC(=O)N(C)C)C[C@H](O)[C@@H](O)[C@H](O)[C@H](O)CO)c1ccc(Cl)c(CNC2(c3cnccc3-c3ccccc3OC3CC3)CC2)c1` (stereo partly drawn) [Compound I-345, 5-{4-chloro-3-[({1-[4-(2-cyclopropoxyphenyl)pyridin-3-yl]cyclopropyl}amino)methyl]phenyl}-N-[2-(dimethylcarbamoyl)ethyl]-N-[(2S,3R,4R,5R)-2,3,4,5,6-pentahydroxyhexyl]hexanamide]: 126 to 1000 nM.
Take `CC(CCCC(=O)N(CCS(C)(=O)=O)C[C@@H](O)[C@H](O)[C@@H](O)[C@@H](O)CO)c1ccc(Cl)c(CNC2(c3cnccc3-c3ccccc3OC3CC3)CC2)c1` (stereo partly drawn) [Compound I-346, 5-{4-chloro-3-[({1-[4-(2-cyclopropoxyphenyl)pyridin-3-yl]cyclopropyl}amino)methyl]phenyl}-N-(2-methanesulfonylethyl)-N-[(2R,3S,4S,5S)-2,3,4,5,6-pentahydroxyhexyl]hexanamide]: the EC50 is less than 100 nM.
On to `CC(CCCC(=O)N(CCCS(C)(=O)=O)C[C@H](O)[C@@H](O)[C@H](O)[C@H](O)CO)c1ccc(Cl)c(CNC2(c3cnccc3-c3ccccc3OC3CC3)CC2)c1` (stereo partly drawn) [Compound I-347, 5-{4-chloro-3-[({1-[4-(2-cyclopropoxyphenyl)pyridin-3-yl]cyclopropyl}amino)methyl]phenyl}-N-(3-methanesulfonylpropyl)-N-[(2S,3R,4R,5R)-2,3,4,5,6-pentahydroxyhexyl]hexanamide], for which the EC50 was less than 100 nM.
In the case of `CC(CCCC(=O)N(CCS(=O)(=O)N(C)C)C[C@H](O)[C@@H](O)[C@H](O)[C@H](O)CO)c1ccc(Cl)c(CNC2(c3cnccc3-c3ccccc3OC3CC3)CC2)c1` (stereo partly drawn) [Compound I-348, 5-{4-chloro-3-[({1-[4-(2-cyclopropoxyphenyl)pyridin-3-yl]cyclopropyl}amino)methyl]phenyl}-N-[2-(dimethylsulfamoyl)ethyl]-N-[(2S,3R,4R,5R)-2,3,4,5,6-pentahydroxyhexyl]hexanamide] it was less than 100 nM; in that of `CCc1ccc(C(C)CCCC(=O)NC[C@H](O)[C@@H](O)[C@H](O)[C@H](O)CO)cc1CNC1(c2cnccc2-c2ccccc2OC2CC2)CC1` (stereo partly drawn) [Compound I-349, 5-{3-[({1-[4-(2-cyclopropoxyphenyl)pyridin-3-yl]cyclopropyl}amino)methyl]-4-ethylphenyl}-N-[(2S,3R,4R,5R)-2,3,4,5,6-pentahydroxyhexyl]hexanamide], less than 100 nM.
Next, `Cc1ccc(C(C)CCCC(=O)N(C)C[C@H](O)[C@@H](O)[C@H](O)[C@H](O)CO)cc1CNC1(c2cnccc2-c2ccccc2OC2CC2)CC1` (stereo partly drawn) [Compound I-352, 5-{3-[({1-[4-(2-cyclopropoxyphenyl)pyridin-3-yl]cyclopropyl}amino)methyl]-4-methylphenyl}-N-methyl-N-[(2S,3R,4R,5R)-2,3,4,5,6-pentahydroxyhexyl]hexanamide]: less than 100 nM; `Cc1ccc(C(C)CCCC(=O)N(C[C@H](O)[C@@H](O)[C@H](O)[C@H](O)CO)C(C)C)cc1CNC1(c2cnccc2-c2ccccc2OC2CC2)CC1` (stereo partly drawn) [Compound I-353, 5-{3-[({1-[4-(2-cyclopropoxyphenyl)pyridin-3-yl]cyclopropyl}amino)methyl]-4-methylphenyl}-N-[(2S,3R,4R,5R)-2,3,4,5,6-pentahydroxyhexyl]-N-(propan-2-yl)hexanamide]: less than 100 nM; `CCCN(C[C@H](O)[C@@H](O)[C@H](O)[C@H](O)CO)C(=O)CCCC(C)c1ccc(C)c(CNC2(c3cnccc3-c3ccccc3OC3CC3)CC2)c1` (stereo partly drawn) [Compound I-354, 5-{3-[({1-[4-(2-cyclopropoxyphenyl)pyridin-3-yl]cyclopropyl}amino)methyl]-4-methylphenyl}-N-[(2S,3R,4R,5R)-2,3,4,5,6-pentahydroxyhexyl]-N-propylhexanamide]: less than 100 nM.
In the case of `Cc1ccc(C(C)CCCC(=O)N(CCO)C[C@H](O)[C@@H](O)[C@H](O)[C@H](O)CO)cc1CNC1(c2cnccc2-c2ccccc2OC2CC2)CC1` (stereo partly drawn) [Compound I-355, 5-{3-[({1-[4-(2-cyclopropoxyphenyl)pyridin-3-yl]cyclopropyl}amino)methyl]-4-methylphenyl}-N-(2-hydroxyethyl)-N-[(2S,3R,4R,5R)-2,3,4,5,6-pentahydroxyhexyl]hexanamide] it was less than 100 nM.
Take `Cc1ccc(C(C)CCCC(=O)N(CC(N)=O)C[C@H](O)[C@@H](O)[C@H](O)[C@H](O)CO)cc1CNC1(c2cnccc2-c2ccccc2OC2CC2)CC1` (stereo partly drawn) [Compound I-356, N-(carbamoylmethyl)-5-{3-[({1-[4-(2-cyclopropoxyphenyl)pyridin-3-yl]cyclopropyl}amino)methyl]-4-methylphenyl}-N-[(2S,3R,4R,5R)-2,3,4,5,6-pentahydroxyhexyl]hexanamide]: the EC50 was less than 100 nM.
`COCCN(C[C@H](O)[C@@H](O)[C@H](O)[C@H](O)CO)C(=O)CCCC(C)c1ccc(C)c(CNC2(c3cnccc3-c3ccccc3OC3CC3)CC2)c1` (stereo partly drawn) [Compound I-357, 5-{3-[({1-[4-(2-cyclopropoxyphenyl)pyridin-3-yl]cyclopropyl}amino)methyl]-4-methylphenyl}-N-(2-methoxyethyl)-N-[(2S,3R,4R,5R)-2,3,4,5,6-pentahydroxyhexyl]hexanamide]: the EC50 is less than 100 nM.
In the case of `Cc1ccc(C(C)CCCC(=O)N(CCCO)C[C@H](O)[C@@H](O)[C@H](O)[C@H](O)CO)cc1CNC1(c2cnccc2-c2ccccc2OC2CC2)CC1` (stereo partly drawn) [Compound I-358, 5-{3-[({1-[4-(2-cyclopropoxyphenyl)pyridin-3-yl]cyclopropyl}amino)methyl]-4-methylphenyl}-N-(3-hydroxypropyl)-N-[(2S,3R,4R,5R)-2,3,4,5,6-pentahydroxyhexyl]hexanamide], the EC50 was 126 to 1000 nM.
In the case of `Cc1ccc(C(C)CCCC(=O)N(CCC(N)=O)C[C@H](O)[C@@H](O)[C@H](O)[C@H](O)CO)cc1CNC1(c2cnccc2-c2ccccc2OC2CC2)CC1` (stereo partly drawn) [Compound I-359, N-(2-carbamoylethyl)-5-{3-[({1-[4-(2-cyclopropoxyphenyl)pyridin-3-yl]cyclopropyl}amino)methyl]-4-methylphenyl}-N-[(2S,3R,4R,5R)-2,3,4,5,6-pentahydroxyhexyl]hexanamide] it was 126 to 1000 nM.
